Laboratory results: patent publication US20260056204A1, “COMPOSITIONS AND METHODS FOR CHEMOPROTEOMIC REAGENT SYNTHESIS AND APPLICATION” (The Regents of the University of California, priority 2023, published 2026)

Tested on: cysteines in HEK293T cell lysates
Assay: competitive ABPP workflow with DADPS capture reagents
Format: biochemical
From the text: To obtain an isotopically enriched DADPS capture reagent, the synthesis and application of heavy L-valine (^13C5 ^15N)— containing reagent NBIV-010 was focused on, as the relatively large +6 Da mass difference is ideal for MS1-based quantification. Further motivating the isotopic reagent design, a +6-mass difference is used in isoTOP-ABPP and isoDTB reagents together with the previously reported heavy and light azido-biotin reagents, which was envisioned could facilitate head-to-head comparisons. Using the same synthetic strategy, heavy reagent NBIV-010 was obtained in 58% yield. […] These reagents in a were further validated in a competitive ABPP workflow. Using HEK293T cell lysates, samples were subjected to either vehicle, DMSO, or 500 μM KB02. Upon labeling with IAA and clicking the samples with either heavy or light DADPS probe (NBIV-010 or NBIV-009, respectively; FIG. 4B) or heavy or light biotin azide, the samples were subjected to SP3 cleanup. After enrichment with either streptavidin resin, for DADPS labeled peptides, or NeutrAvidin resin, for biotin azide labeled peptides, the peptides were cleaved or eluted off resin, respectively, and analyzed by LC-MS/MS. […]

## COc1ccc2c(c1)CCCN2C(=O)CCl [KB02]
500 μM KB02
  cysteines with ratios>2 shared by DADPS and biotin azide datasets (high confidence KB02-labeled sites): 163
500 μM KB02 vs DMSO, heavy/light DADPS probes NBIV-010/NBIV-009, three biological replicates
  cysteines found in peptides with Log2 MS1 extracted ion chromatograph area ratios>2 (cysteines modified by KB02; ligandable cysteines): 404
